Measurements as given in article PMC6339567 (Analytical chemistry, 2018).
One block for each compound: values may come before it.

How the values were obtained:
P-gp = P-gp (Mus musculus, UniProt P21447); test: in vitro
in vitro = details: mouse
[1] = test system: confluent monolayers of primary murine colonic epithelial cells; details: Figure 4A
[2] = test system: confluent monolayers of primary murine colonic epithelial cells; type: in vitro ADME, mouse; details: upper bound for all monolayers with TEER >300 Ω cm^2 (n=6)

Chain of P-gp (P21447 whole entry): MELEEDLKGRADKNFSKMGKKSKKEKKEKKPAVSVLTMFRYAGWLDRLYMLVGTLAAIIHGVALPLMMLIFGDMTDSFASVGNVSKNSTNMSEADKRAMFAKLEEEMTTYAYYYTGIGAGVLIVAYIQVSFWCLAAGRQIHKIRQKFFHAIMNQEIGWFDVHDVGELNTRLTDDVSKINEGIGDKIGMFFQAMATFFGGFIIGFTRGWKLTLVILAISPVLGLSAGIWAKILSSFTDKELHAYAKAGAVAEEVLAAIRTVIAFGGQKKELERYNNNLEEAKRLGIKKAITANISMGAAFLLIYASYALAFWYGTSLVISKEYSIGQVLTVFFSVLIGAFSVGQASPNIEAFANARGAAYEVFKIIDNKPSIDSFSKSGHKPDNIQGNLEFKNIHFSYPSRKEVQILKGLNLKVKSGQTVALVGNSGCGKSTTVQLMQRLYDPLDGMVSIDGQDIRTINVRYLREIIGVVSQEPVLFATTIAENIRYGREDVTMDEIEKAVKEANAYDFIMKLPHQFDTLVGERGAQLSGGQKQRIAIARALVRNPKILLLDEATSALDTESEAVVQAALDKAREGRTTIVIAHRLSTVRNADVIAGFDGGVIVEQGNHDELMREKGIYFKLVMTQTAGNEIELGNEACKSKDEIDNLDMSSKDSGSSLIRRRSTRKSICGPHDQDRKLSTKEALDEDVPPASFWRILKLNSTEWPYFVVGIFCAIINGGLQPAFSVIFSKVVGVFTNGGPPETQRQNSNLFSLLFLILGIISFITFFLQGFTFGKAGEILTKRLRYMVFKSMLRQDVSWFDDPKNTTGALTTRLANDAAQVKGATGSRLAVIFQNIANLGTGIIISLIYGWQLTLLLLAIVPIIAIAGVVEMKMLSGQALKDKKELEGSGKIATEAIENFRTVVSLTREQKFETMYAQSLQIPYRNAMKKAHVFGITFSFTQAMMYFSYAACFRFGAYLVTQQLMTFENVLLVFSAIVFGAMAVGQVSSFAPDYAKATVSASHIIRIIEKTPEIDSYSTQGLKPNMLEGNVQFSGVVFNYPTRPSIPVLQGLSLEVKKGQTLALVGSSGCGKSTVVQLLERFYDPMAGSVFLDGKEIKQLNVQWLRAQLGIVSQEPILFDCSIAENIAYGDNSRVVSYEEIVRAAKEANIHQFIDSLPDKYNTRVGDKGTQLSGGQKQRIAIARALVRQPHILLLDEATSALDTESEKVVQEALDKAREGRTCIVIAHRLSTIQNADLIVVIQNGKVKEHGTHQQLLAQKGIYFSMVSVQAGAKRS

efflux ratio at 2 h, 10 µM (P-gp): 7
Compound: COC(=O)c1ccccc1-c1c2ccc(=N)cc-2oc2cc(N)ccc12 [Rh123, rhodamine 123]

Papp at 3 h, 10 µM (in vitro): 9.69 ×10⁻⁶ cm/s | permeability across day-5 monolayers (in words) [1]: high Papp
Compound: CC(C)NCC(O)COc1cccc2ccccc12 (stereo not shown) [propranolol]

Papp for LY, all monolayers with TEER >300 Ω cm^2 [2]: < 0.45 ×10⁻⁶ cm/s
Compound: lucifer yellow [LY]
